The values that follow come from patent publication US20240190880A1 (THE REGENTS OF THE UNIVERSITY OF MICHIGAN, priority 2021, published 2024).

Some results are limits rather than exact numbers.

One assay concerns the target T1, ER (Homo sapiens, UniProt P03372).
T1 construct: host or cells: T47D and MCF7 human breast cancer cells
T1 sequence (P03372 1-595): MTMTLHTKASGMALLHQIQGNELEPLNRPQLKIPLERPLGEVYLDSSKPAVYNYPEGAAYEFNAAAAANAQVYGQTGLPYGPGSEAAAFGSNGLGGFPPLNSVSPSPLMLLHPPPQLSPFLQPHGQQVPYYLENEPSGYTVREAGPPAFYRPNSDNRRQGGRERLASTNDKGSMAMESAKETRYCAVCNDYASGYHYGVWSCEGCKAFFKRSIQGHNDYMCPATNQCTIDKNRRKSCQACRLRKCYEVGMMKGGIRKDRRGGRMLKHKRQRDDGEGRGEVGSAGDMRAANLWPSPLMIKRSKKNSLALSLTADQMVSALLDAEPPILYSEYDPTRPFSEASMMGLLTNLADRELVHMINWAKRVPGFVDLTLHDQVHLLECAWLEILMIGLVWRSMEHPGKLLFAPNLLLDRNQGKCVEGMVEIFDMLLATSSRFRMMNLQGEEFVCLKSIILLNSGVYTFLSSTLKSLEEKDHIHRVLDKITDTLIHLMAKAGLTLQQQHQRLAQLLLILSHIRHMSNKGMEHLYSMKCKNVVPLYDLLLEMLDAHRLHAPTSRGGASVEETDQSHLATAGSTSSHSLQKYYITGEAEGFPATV
In words: ER degradation activity, in-cell western blot analysis in T47D cells. Type of assay: cell-based. The conditions noted are these: 16 hours, Table A does not say which cell line (T47D or MCF7), read-out: Potency (DC50). In a few lines: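 In-cell western, T47D; compounds 16 h, 0.5% DMSO final; anti-rabbit-680/anti-mouse-800 secondaries, 1 h RT, dark; read on CLX imager. ER % vs untreated/DMSO wells (100%).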
Take `O=C1CCC(N2C(=O)c3cc4c(cc3C2=O)CN(CC2CN(C(=O)C3CN(c5ccc([C@@H]6c7ccc(O)cc7CC[C@@H]6c6ccccc6)cc5)C3)C2)C4)C(=O)N1` (mixture of isomers) [E 158, Rac-2-(2,6-dioxopiperidin-3-yl)-6-((1-(1-(4-((1R,2S)-6-hydroxy-2-phenyl-1,2,3,4-tetrahydronaphthalen-1-yl)phenyl)azetidine-3-carbonyl)azetidin-3-yl)methyl)-6,7-dihydropyrrolo[3,4-f]isoindole-1,3(2H,5H)-dione]: the DC50 was more than 100 nM.
The same measure, in the same setting: the value for `O=C1CCC(N2C(=O)c3cc4c(cc3C2=O)CN(C(=O)[C@H]2CC[C@H](N3CC(Oc5ccc([C@H]6c7ccc(O)cc7CC[C@H]6c6ccccc6)cc5)C3)CC2)C4)C(=O)N1` (stereo partly drawn) [E 388, 2-(2,6-dioxopiperidin-3-yl)-6-((1S,4r)-4-(3-(4-((1S,2R)-6-hydroxy-2-phenyl-1,2,3,4-tetrahydronaphthalen-1-yl)phenoxy)azetidin-1-yl)cyclohexane-1-carbonyl)-6,7-dihydropyrrolo[3,4-f]isoindole-1,3(2H,5H)-dione] was 10 to 100 nM.
Consider `C[C@@H]1Cc2c([nH]c3ccccc23)[C@@H](c2c(F)cc(C3CCN(C(=O)C4CCC(N5Cc6cc7c(cc6C5)C(=O)N(C5CCC(=O)NC5=O)C7=O)CC4)CC3)cc2F)N1CC(F)F` (stereo partly drawn) [E 348, 6-(4-(4-(4-((1R,3R)-2-(2,2-difluoroethyl)-3-methyl-2,3,4,9-tetrahydro-1H-pyrido[3,4-b]indol-1-yl)-3,5-difluorophenyl)piperidine-1-carbonyl)cyclohexyl)-2-(2,6-dioxopiperidin-3-yl)-6,7-dihydropyrrolo[3,4-f]isoindole-1,3(2H,5H)-dione], for which the DC50 lay in the range of 10 to 100 nM.
`C[C@@H]1Cc2c([nH]c3ccccc23)[C@@H](c2c(F)cc(N3CCC(N4CCN(CC(=O)N5Cc6cc7c(cc6C5)C(=O)N(C5CCC(=O)NC5=O)C7)CC4)CC3)cc2F)N1CC(F)F` (stereo partly drawn) [E 96, 3-(6-(2-(4-(1-(4-((1R,3R)-2-(2,2-difluoroethyl)-3-methyl-2,3,4,9-tetrahydro-1H-pyrido[3,4-b]indol-1-yl)-3,5-difluorophenyl)piperidin-4-yl)piperazin-1-yl)acetyl)-1-oxo-3,5,6,7-tetrahydropyrrolo[3,4-f]isoindol-2(1H)-yl)piperidine-2,6-dione]: the DC50 is less than 10 nM.
On the same count and under the same terms, with `O=C1CCC(N2C(=O)c3cc4c(cc3C2=O)CN(C(=O)[C@H]2CC[C@H](CN3CC(Nc5ccc([C@@H]6c7ccc(O)cc7CC[C@@H]6c6ccccc6)cc5)C3)CC2)C4)C(=O)N1` (stereo partly drawn) [E 363, 2-(2,6-dioxopiperidin-3-yl)-6-((1R,4r)-4-((3-((4-((1R,2S)-6-hydroxy-2-phenyl-1,2,3,4-tetrahydronaphthalen-1-yl)phenyl)amino)azetidin-1-yl)methyl)cyclohexane-1-carbonyl)-6,7-dihydropyrrolo[3,4-f]isoindole-1,3(2H,5H)-dione] the figure was less than 10 nM.
On the same count and under the same terms, with `C[C@@H]1Cc2c([nH]c3ccccc23)[C@@H](c2c(F)cc(N3CC(F)(C(=O)N4CCC(F)(CN5Cc6cc7c(cc6C5)C(=O)N(C5CCC(=O)NC5=O)C7=O)CC4)C3)cc2F)N1CC(F)F` (stereo partly drawn) [E 210, 6-((1-(1-(4-((1R,3R)-2-(2,2-difluoroethyl)-3-methyl-2,3,4,9-tetrahydro-1H-pyrido[3,4-b]indol-1-yl)-3,5-difluorophenyl)-3-fluoroazetidine-3-carbonyl)-4-fluoropiperidin-4-yl)methyl)-2-(2,6-dioxopiperidin-3-yl)-6,7-dihydropyrrolo[3,4-f]isoindole-1,3(2H,5H)-dione] the figure was more than 100 nM; with `O=C1CCC(N2C(=O)c3cc4c(cc3C2=O)CN(C(=O)CN2CC3(CCN(c5ccc([C@@H]6c7ccc(O)cc7CC[C@@H]6c6ccc(F)cc6)cc5)CC3)C2)C4)C(=O)N1` (mixture of isomers) [E 127, 2-(2,6-dioxopiperidin-3-yl)-6-(2-(7-(4-((1R,2S)-2-(4-fluorophenyl)-6-hydroxy-1,2,3,4-tetrahydronaphthalen-1-yl)phenyl)-2,7-diazaspiro[3.5]nonan-2-yl)acetyl)-6,7-dihydropyrrolo[3,4-f]isoindole-1,3(2H,5H)-dione], 10 to 100 nM.
Still for that read-out and setting: the value for `C[C@@H]1Cc2c([nH]c3ccccc23)[C@@H](c2c(F)cc(N3CCC(N4CC(CC(=O)N5Cc6cc7c(cc6C5)C(=O)N(C5CCC(=O)NC5=O)C7)C4)CC3)cc2F)N1CC(F)F` (stereo partly drawn) [E 56, 3-(6-(2-(1-(1-(4-((1R,3R)-2-(2,2-difluoroethyl)-3-methyl-2,3,4,9-tetrahydro-1H-pyrido[3,4-b]indol-1-yl)-3,5-difluorophenyl)piperidin-4-yl)azetidin-3-yl)acetyl)-1-oxo-3,5,6,7-tetrahydropyrrolo[3,4-f]isoindol-2(1H)-yl)piperidine-2,6-dione] was 10 to 100 nM.
For `O=C1CCC(N2C(=O)c3cc4c(cc3C2=O)CN(CC(=O)N2CCC3(CC2)CCN(c2cnc([C@@H]5c6ccc(O)cc6CC[C@@H]5c5ccccc5)cn2)CC3)C4)C(=O)N1` (mixture of isomers) [E 304, Rac-2-(2,6-dioxopiperidin-3-yl)-6-(2-(9-(5-((1S,2S)-6-hydroxy-2-phenyl-1,2,3,4-tetrahydronaphthalen-1-yl)pyrazin-2-yl)-3,9-diazaspiro[5.5]undecan-3-yl)-2-oxoethyl)-6,7-dihydropyrrolo[3,4-f]isoindole-1,3(2H,5H)-dione], the DC50 was more than 100 nM.
On the same count and under the same terms, the value for `C[C@@H]1Cc2cc(O)ccc2[C@@H](c2c(F)cc(N3CCC4(CCN(CC(=O)N5Cc6cc7c(cc6C5)C(=O)N(C5CCC(=O)NC5=O)C7)C4)CC3)cc2F)N1CC(C)(F)F` (stereo partly drawn) [E 34, 3-(6-(2-(8-(4-((1S,3R)-2-(2,2-difluoropropyl)-6-hydroxy-3-methyl-1,2,3,4-tetrahydroisoquinolin-1-yl)-3,5-difluorophenyl)-2,8-diazaspiro[4.5]decan-2-yl)acetyl)-1-oxo-3,5,6,7-tetrahydropyrrolo[3,4-f]isoindol-2(1H)-yl)piperidine-2,6-dione] was 10 to 100 nM.

Still in this assay, the particulars now being: compounds 16 hours, Table A does not say whether T47D or MCF7, read-out: Potency (DC50).
Turning to `C[C@@H]1Cc2cc(O)ccc2[C@H](c2c(F)cc(C(=O)N3CC4(CCN(C(=O)CN5Cc6cc7c(cc6C5)C(=O)N(C5CCC(=O)NC5=O)C7=O)CC4)C3)cc2F)N1CC(F)F` (stereo partly drawn) [E 458, 6-(2-(2-(4-((1R,3R)-2-(2,2-difluoroethyl)-6-hydroxy-3-methyl-1,2,3,4-tetrahydroisoquinolin-1-yl)-3,5-difluorobenzoyl)-2,7-diazaspiro[3.5]nonan-7-yl)-2-oxoethyl)-2-(2,6-dioxopiperidin-3-yl)-6,7-dihydropyrrolo[3,4-f]isoindole-1,3(2H,5H)-dione], the DC50 was more than 100 nM.
The same measure, in the same setting: the value for `CN(c1ccc([C@@H]2c3ccc(O)cc3CC[C@@H]2c2ccccc2)cc1)C1CN(C[C@H]2CC[C@H](C(=O)N3Cc4cc5c(cc4C3)C(=O)N(C3CCC(=O)NC3=O)C5=O)CC2)C1` (stereo partly drawn) [E 398, 2-(2,6-dioxopiperidin-3-yl)-6-((1R,4r)-4-((3-((4-((1R,2S)-6-hydroxy-2-phenyl-1,2,3,4-tetrahydronaphthalen-1-yl)phenyl)(methyl)amino)azetidin-1-yl)methyl)cyclohexane-1-carbonyl)-6,7-dihydropyrrolo[3,4-f]isoindole-1,3(2H,5H)-dione] was more than 100 nM; that for `O=C1CCC(N2Cc3cc4c(cc3C2=O)C(=O)N(C2CCN(CC3CCN(c5ccc([C@@H]6c7ccc(O)cc7CC[C@@H]6c6ccccc6)cc5)CC3)CC2)C4)C(=O)N1` (stereo partly drawn) [E 507, 2-(2,6-dioxopiperidin-3-yl)-6-(1-((1-(4-((1R,2S)-6-hydroxy-2-phenyl-1,2,3,4-tetrahydronaphthalen-1-yl)phenyl)piperidin-4-yl)methyl)piperidin-4-yl)-2,3,5,6-tetrahydropyrrolo[3,4-f]isoindole-1,7-dione] was more than 100 nM.
Still for that read-out and setting: with `O=C1CCC(N2Cc3cc4c(cc3C2=O)CN(CC2CN(CC3CCN(c5ccc([C@@H]6c7ccc(O)cc7CC[C@@H]6c6ccccc6)cc5)CC3)C2)C4=O)C(=O)N1` (stereo partly drawn) [E 504, 2-(2,6-dioxopiperidin-3-yl)-6-((1-((1-(4-((1R,2S)-6-hydroxy-2-phenyl-1,2,3,4-tetrahydronaphthalen-1-yl)phenyl)piperidin-4-yl)methyl)azetidin-3-yl)methyl)-2,3,6,7-tetrahydropyrrolo[3,4-f]isoindole-1,5-dione] the figure was more than 100 nM; with `C[C@@H]1Cc2c([nH]c3ccccc23)[C@@H](c2ncc(C3=CCC(C(=O)N4CCC(N5Cc6cc7c(cc6C5)C(=O)N(C5CCC(=O)NC5=O)C7=O)CC4)CC3)cc2F)N1CC(C)(F)F` (stereo partly drawn) [E 483, 6-(1-(4-(6-((1S,3R)-2-(2,2-difluoropropyl)-3-methyl-2,3,4,9-tetrahydro-1H-pyrido[3,4-b]indol-1-yl)-5-fluoropyridin-3-yl)cyclohex-3-ene-1-carbonyl)piperidin-4-yl)-2-(2,6-dioxopiperidin-3-yl)-6,7-dihydropyrrolo[3,4-f]isoindole-1,3(2H,5H)-dione], more than 100 nM.
